Measurements: the supplement of paper PMC10331698
± gives the standard deviation of the averaged measurements.

Columns and labels:
Test in all cases: level (log10 ratio to DMSO vehicle control); higher = higher biomarker level / cell amount than vehicle control
Conditions in all cases: in DMSO
[1] = compound: FC(F)C(F)(F)COCC1CO1 [((2,2,3,3-Tetrafluoropropoxy)methyl)oxirane]
Description: (§1)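 BioMAP Diversity Plus panel of 12 human primary cell co-culture systems (3C, 4H, LPS, SAg, BT, BF4T, BE3C, CASM3C, HDF3CGF, KF3CT, MyoF, Mphg). Compounds were added 1 h before stimulation and left for 24 h (MyoF 48 h; BT 72 h for soluble read-outs or 6 d for IgG). Biomarkers were read by ELISA, cytotoxicity by SRB, PBMC viability and proliferation by Alamar Blue. Each well value was divided by the mean of 8 DMSO control wells on the same plate and log10 transformed; duplicate blinded samples were tested at 4 concentrations.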

[2] = compound: OCCC(F)(F)C(F)(F)C(F)(F)C(F)(F)C(F)(F)C(F)(F)F [6:2 Fluorotelomer alcohol]
Description: as §1

[3] = compound: O=C(O)C(F)(F)C(F)(F)C(F)(F)C(F)(F)C(F)(F)C(F)(F)C(F)(F)C(F)F [9-H-Perfluorononanoic acid]
Description: as §1

[4] = compound: O=C(O)C(F)(F)OC(F)(F)C(F)(F)OC(F)(F)F [Perfluoro-3,6-dioxaheptanoic acid]
Description: as §1

Perfluorodecanoic acid = compound: O=C(O)C(F)(F)C(F)(F)C(F)(F)C(F)(F)C(F)(F)C(F)(F)C(F)(F)C(F)(F)C(F)(F)F [Perfluorodecanoic acid]
Description: as §1

[5] = compound: NCC(F)(F)C(F)(F)C(F)(F)C(F)(F)C(F)(F)C(F)(F)C(F)(F)F [1H,1H-Perfluorooctylamine]
Description: as §1

Heptafluorobutyramide = compound: NC(=O)C(F)(F)C(F)(F)C(F)(F)F [Heptafluorobutyramide]
Description: as §1

| Test System | level (log10) ([1]; 6700 nM) | level (log10) ([1]; 20000 nM) | level (log10) ([1]; 60000 nM) | level (log10) ([2]; 6700 nM) | level (log10) ([2]; 20000 nM) | level (log10) ([3]; 6700 nM) | level (log10) ([3]; 20000 nM) | level (log10) ([3]; 60000 nM) | level (log10) ([4]; 6700 nM) | level (log10) ([4]; 20000 nM) | level (log10) ([4]; 60000 nM) | level (log10) (Perfluorodecanoic acid; 6700 nM) | level (log10) (Perfluorodecanoic acid; 20000 nM) | level (log10) ([5]; 6700 nM) | level (log10) ([5]; 20000 nM) | level (log10) ([5]; 60000 nM) | level (log10) (Heptafluorobutyramide; 6700 nM) | level (log10) (Heptafluorobutyramide; 20000 nM) | level (log10) (Heptafluorobutyramide; 60000 nM) |
| --- | --- | --- | --- | --- | --- | --- | --- | --- | --- | --- | --- | --- | --- | --- | --- | --- | --- | --- | --- |
| BF4T:MMP-1 | 0.016 ± 0.0085 | 0.007 ± 0.02 | 0.03 ± 0.021 | 0.0065 ± 0.005 | 0.014 ± 0.021 | 0.005 ± 0.021 | -0.0075 ± 0.039 | 0.0925 ± 0.00071 | -0.0125 ± 0.025 | -0.004 ± 0.028 | -0.001 ± 0.013 | -0.0015 ± 0.0035 | -0.201 ± 0.011 | 0.0115 ± 0.0092 | 0.0025 ± 0.005 | 0.011 ± 0.0085 | 0.0065 ± 0.025 | 0.003 ± 0.031 | 0.003 ± 0.0071 |
| LPS:CCL2/MCP-1 | 0.006 ± 0.0085 | -0.007 ± 0.0099 | 0.01 ± 0.013 | 0.002 ± 0.0085 | -0.022 ± 0.0071 | -0.0165 ± 0.005 | -0.0055 ± 0.0021 | 0.0405 ± 0.025 | 0.0005 ± 0.022 | -0.001 ± 0.04 | -0.0085 ± 0.025 | -0.0005 ± 0.012 | -0.0015 ± 0.0064 | -0.004 ± 0.031 | -0.024 ± 0.014 | -0.001 ± 0.0071 | 0.0255 ± 0.0035 | 0.0105 ± 0.0078 | 0.0275 ± 0.057 |
| BF4T:CD106/VCAM-1 | 0.003 ± 0.0028 | -0.003 ± 0.0057 | 0.0185 ± 0.043 | -0.0195 ± 0.042 | -0.0525 ± 0.028 | -0.0885 ± 0.049 | -0.103 ± 0.058 | -0.0625 ± 0.021 | -0.035 ± 0.055 | -0.0205 ± 0.032 | -0.01 ± 0.017 | -0.026 ± 0.0085 | -0.311 ± 0.0042 | 0.002 | 0.0045 ± 0.00071 | 0.0215 ± 0.032 | -0.006 ± 0.0014 | -0.013 ± 0.0085 | 0.021 ± 0.069 |
| BE3C:EGFR | 0.002 ± 0.0071 | -0.021 ± 0.021 | -0.0145 ± 0.012 | 0.004 ± 0.051 | -0.0025 ± 0.049 | -0.028 ± 0.0099 | -0.022 ± 0.021 | -0.0425 ± 0.023 | -0.0185 ± 0.012 | 0.003 ± 0.021 | 0.007 ± 0.02 | -0.0135 ± 0.05 | -0.149 ± 0.073 | -0.005 ± 0.0099 | -0.018 ± 0.0057 | 0.003 ± 0.0014 | -0.008 ± 0.0028 | -0.017 ± 0.011 | 0.004 ± 0.021 |
| LPS:CD69 | 0.0005 ± 0.022 | -0.003 ± 0.0014 | 0.012 ± 0.041 | -0.006 ± 0.04 | 0 | -0.018 ± 0.0028 | -0.0275 ± 0.039 | -0.0575 ± 0.0035 | -0.0125 ± 0.0064 | -0.044 ± 0.035 | -0.0165 ± 0.019 | -0.03 ± 0.011 | -0.048 ± 0.0099 | -0.045 ± 0.017 | -0.0255 ± 0.036 | 0.002 ± 0.0071 | 0.028 ± 0.076 | -0.0065 ± 0.056 | -0.009 ± 0.069 |
| LPS:CD141/Thrombomodulin | 0.0055 ± 0.016 | -0.003 ± 0.03 | -0.049 ± 0.013 | 0.002 ± 0.024 | 0.013 ± 0.0042 | 0.015 ± 0.017 | 0.018 ± 0.0057 | 0.027 ± 0.03 | -0.033 ± 0.081 | -0.018 ± 0.067 | -0.0165 ± 0.012 | 0.0035 ± 0.00071 | 0.002 ± 0.0057 | -0.0055 ± 0.025 | -0.0355 ± 0.021 | -0.026 ± 0.034 | -0.018 ± 0.05 | -0.0175 ± 0.064 | -0.0175 ± 0.035 |
| SAg:CD38 | -0.007 ± 0.0014 | -0.006 ± 0.011 | 0.002 ± 0.023 | 0.0115 ± 0.026 | -0.008 ± 0.0071 | 0.0255 ± 0.039 | -0.015 ± 0.0085 | -0.016 ± 0.011 | -0.0055 ± 0.052 | -0.003 ± 0.047 | -0.014 ± 0.024 | -0.009 ± 0.0014 | -0.017 ± 0.0057 | 0.0005 ± 0.012 | -0.0155 ± 0.00071 | 0.0065 ± 0.005 | -0.0315 ± 0.029 | -0.03 ± 0.016 | -0.021 ± 0.021 |
| SAg:CCL2/MCP-1 | -0.0305 ± 0.046 | -0.0185 ± 0.016 | -0.014 ± 0.011 | -0.0165 ± 0.0035 | -0.0115 ± 0.00071 | -0.009 ± 0.014 | -0.022 ± 0.0014 | 0.0245 ± 0.04 | 0.0125 ± 0.032 | 0.002 ± 0.035 | -0.0025 ± 0.033 | 0.0065 ± 0.0064 | -0.017 ± 0.0014 | -0.0255 ± 0.012 | -0.0145 ± 0.0064 | -0.0035 ± 0.025 | -0.0125 ± 0.015 | -0.011 ± 0.0099 | 0.0085 ± 0.037 |
| SAg:SRB | -0.007 ± 0.0057 | -0.0075 ± 0.0064 | -0.005 ± 0.014 | -0.003 ± 0.027 | 0 ± 0.02 | -0.002 ± 0.025 | -0.003 ± 0.013 | -0.036 ± 0.0071 | -0.0085 ± 0.0035 | -0.0175 ± 0.00071 | -0.008 ± 0.0085 | -0.0035 ± 0.012 | -0.008 ± 0.013 | 0.0005 ± 0.0035 | -0.002 ± 0.014 | -0.001 ± 0.027 | -0.018 ± 0.025 | -0.0125 ± 0.011 | -0.0095 ± 0.018 |
| BE3C:CXCL8/IL-8 | 0.0015 ± 0.00071 | -0.005 ± 0.025 | -0.009 ± 0.021 | 0.01 ± 0.048 | -0.0085 ± 0.021 | 0.0255 ± 0.084 | 0.0435 ± 0.059 | 0.0385 ± 0.023 | -0.041 ± 0.033 | -0.007 ± 0.011 | -0.0155 ± 0.05 | -0.0545 ± 0.069 | -0.577 ± 0.023 | -0.017 ± 0.023 | -0.0075 ± 0.025 | -0.005 ± 0.013 | 0.038 ± 0.0014 | 0.0365 ± 0.012 | 0.038 ± 0.051 |
| LPS:sTNF-alpha | 0.0135 ± 0.0021 | 0.015 ± 0.013 | 0.0175 ± 0.0021 | -0.0335 ± 0.17 | -0.016 ± 0.16 | -0.0145 ± 0.012 | -0.0055 ± 0.016 | -0.0115 ± 0.019 | -0.012 ± 0.027 | -0.0265 ± 0.023 | -0.0205 ± 0.005 | -0.0245 ± 0.011 | -0.02 ± 0.017 | 0.018 ± 0.011 | 0.0125 ± 0.029 | -0.0015 ± 0.028 | 0.012 ± 0.017 | 0.013 ± 0.011 | 0.001 ± 0.023 |
| SAg:CXCL8/IL-8 | -0.004 ± 0.011 | -0.0335 ± 0.011 | 0.02 ± 0.018 | -0.0035 ± 0.011 | 0.0035 ± 0.0021 | 0.01 ± 0.018 | 0.0005 ± 0.0064 | 0.0715 ± 0.013 | 0.0055 ± 0.0035 | 0.034 ± 0.0071 | 0.0735 ± 0.04 | -0.0325 ± 0.03 | -0.064 ± 0.038 | 0.058 ± 0.076 | -0.0255 ± 0.011 | 0.0065 ± 0.061 | 0.015 ± 0.013 | 0.011 ± 0.017 | 0.0085 ± 0.021 |
| BF4T:CXCL8/IL-8 | 0.0165 ± 0.013 | 0.003 ± 0.0042 | 0.0255 ± 0.021 | 0.0185 ± 0.015 | 0.0005 ± 0.005 | 0.0365 ± 0.021 | 0.038 ± 0.023 | 0.0565 ± 0.016 | 0.044 ± 0.034 | 0.0475 ± 0.015 | 0.073 ± 0.045 | 0.0395 ± 0.012 | -0.293 ± 0.076 | 0.039 ± 0.021 | 0.009 ± 0.014 | 0.039 ± 0.0085 | 0.032 ± 0.061 | 0.024 ± 0.057 | 0.0155 ± 0.012 |
| LPS:CD142/Tissue Factor | 0.013 ± 0.024 | 0.006 ± 0.0057 | -0.019 ± 0.023 | 0.0285 ± 0.026 | -0.007 ± 0.013 | -0.03 ± 0.021 | -0.024 ± 0.011 | 0.0785 ± 0.039 | -0.0335 ± 0.011 | 0.0145 ± 0.023 | 0.009 ± 0.0028 | 0.018 ± 0.0085 | -0.011 ± 0.0028 | 0.02 ± 0.095 | 0.005 ± 0.054 | -0.0475 ± 0.073 | -0.0035 ± 0.028 | 0.002 ± 0.061 | -0.0245 ± 0.047 |
| BF4T:IL-1alpha | -0.0025 ± 0.00071 | -0.009 ± 0.0099 | 0.021 ± 0.03 | -0.002 ± 0.0014 | -0.0125 ± 0.021 | 0.0005 ± 0.00071 | -0.019 ± 0.0099 | 0.0055 ± 0.044 | -0.0225 ± 0.035 | -0.021 ± 0.024 | -0.0105 ± 0.018 | -0.0335 ± 0.0035 | -0.247 ± 0.28 | 0.001 ± 0.0057 | -0.0175 ± 0.0035 | 0.0065 ± 0.013 | 0.005 ± 0.02 | -0.0045 ± 0.012 | 0.016 ± 0.0071 |
